# Laboratory results reported in ChEMBL document CHEMBL1201862, “PubChem BioAssay data set” (2004).
# Activity calls are given as the source filed them.
# What was measured:
# INS1 = experiment: beta cell apoptosis inhibitors, cytokine rescue, dose response, luminescence, retest (AID 449756); assay type: functional, cell-based; settings: Rattus norvegicus;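 also: cell death triggered by IL-1 beta plus TNF-alpha plus IFN-gamma mixture; protective hits raise ATP signal compared with cytokine alone wells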
# [1] = target: Sphingosine 1-phosphate receptor 2 (Homo sapiens, UniProt O95136); experiment: Dose Response Cell Based Assay for Antagonists of the S1P2 Receptor. [Related pubchem assays: 856, 736 ]; assay type: functional
# Sphingosine 1-phosphate receptor 2, sequence (O95136 whole entry): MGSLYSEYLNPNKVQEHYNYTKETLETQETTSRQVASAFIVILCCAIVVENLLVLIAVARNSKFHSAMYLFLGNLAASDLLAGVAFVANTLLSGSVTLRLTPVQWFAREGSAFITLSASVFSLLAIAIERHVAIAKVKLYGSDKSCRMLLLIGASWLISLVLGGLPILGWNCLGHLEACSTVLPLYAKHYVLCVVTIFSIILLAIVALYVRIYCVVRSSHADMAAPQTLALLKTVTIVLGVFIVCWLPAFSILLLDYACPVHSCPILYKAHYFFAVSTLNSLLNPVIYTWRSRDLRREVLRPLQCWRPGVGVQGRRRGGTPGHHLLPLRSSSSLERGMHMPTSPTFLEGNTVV
# [2] = P. falciparum ATP4 D1247Y mutant growth inhibitors, dose response, NITD609-resistant line, SYBR Green, dry powder (AID 1159571); assay type: functional, cell-based;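 also: parasites synchronized at ring stage by sorbitol before testing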
# [3] = P. falciparum 3D7-ScDHODH growth inhibitors, dose response, SYBR Green, dry powder samples (AID 1159570); assay type: functional, cell-based;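 also: parasite growth measured after 72 hours of compound exposure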
# [4] = HepG2 cell cytotoxicity, dose response, cytotoxicity control, plate reader, dry powder samples (AID 1159569); assay type: functional, cell-based;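 also: inhibitor potency with signal falling toward the positive control level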
# [5] = P. falciparum Dd2 growth inhibitors, dose response, SYBR Green, cherry-picked samples (AID 1159567); assay type: functional, cell-based
# [6] = P. falciparum Dd2 growth inhibitors, dose response, SYBR Green, dry powder samples (AID 1159566); assay type: functional, cell-based;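 also: potency for growth inhibition with lower SYBR green DNA signal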
# [7] = Jurkat T cell cytotoxicity, dose response, cytotoxicity control for P. falciparum gametocyte viability project, luminescence (AID 1117277); assay type: functional, cell-based;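 also: potency reflects loss of cellular ATP meaning fewer viable cells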
# [8] = P. falciparum late gametocyte killing, dose response, luminescence (AID 1117278); assay type: functional, cell-based;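 also: gametocytes exposed to compound for 24 hours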
# [9] = Luminescence-based cell-based high throughput dose response assay to identify activators of the DAF-12 from the parasite S. stercoralis (ssDAF-12).; assay type: functional
# [10] = target: T1, Oxysterols receptor LXR-beta (Homo sapiens, UniProt P55055); experiment: LXR agonists, Gal4 luciferase reporter, dose response, counter-screen for ssDAF-12 agonist project, cell-based, luminescence, HEK293, S. stercoralis campaign (AID 720737); assay type: functional; settings: read-out: IC50 (the source's name)
# T1 sequence (P55055 whole entry): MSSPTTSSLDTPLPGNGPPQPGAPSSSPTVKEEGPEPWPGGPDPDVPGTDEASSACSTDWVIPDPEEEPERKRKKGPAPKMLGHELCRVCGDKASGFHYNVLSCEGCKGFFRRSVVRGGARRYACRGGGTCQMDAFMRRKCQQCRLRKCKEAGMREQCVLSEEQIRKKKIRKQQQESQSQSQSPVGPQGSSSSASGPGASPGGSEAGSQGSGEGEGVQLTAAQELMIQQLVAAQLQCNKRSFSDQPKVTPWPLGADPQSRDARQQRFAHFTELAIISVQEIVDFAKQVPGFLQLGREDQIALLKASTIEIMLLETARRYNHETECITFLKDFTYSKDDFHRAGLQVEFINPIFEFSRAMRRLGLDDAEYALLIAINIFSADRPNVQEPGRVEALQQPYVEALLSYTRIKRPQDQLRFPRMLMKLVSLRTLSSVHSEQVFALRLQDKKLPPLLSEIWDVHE
# [11] = Luminescence Cell-Based Dose Response to Identify Activators of Luciferase Translation or Activity in H4-C Neuroglioblastoma Cells. [Related pubchem assays: 1829 (Project Summary), 1814 (Primary HTS)]; assay type: functional
# [12] = Luminescence Cell-Based Dose Confirmation to Identify Activators of 5'UTR Stem-Loop Driven Alpha-Synuclein mRNA Translation in H4 Neuroglioblastoma Cells. [Related pubchem assays: 1829 (Project Summary), 1814 (Primary HTS)]; assay type: functional
# [13] = Luminescence Cell-Based Dose Response HTS to Identify Activators of Luciferase Translation or Activity in H4 […] Cells. [Related pubchem assays: 1829 (Project Summary), 1814 (Primary HTS)]; assay type: functional
# H4 = experiment: Luminescence Cell-Based Dose Response HTS to Identify Activators of 5'UTR Stem-Loop Driven Prion Protein mRNA Translation in H4 Neuroglioblastoma Cells. [Related pubchem assays: 1829 (Project Summary), 1814 (Primary HTS)]; assay type: functional; settings: Homo sapiens
# [14] = Luminescence Cell-Based Dose Response to Identify Activators of 5'UTR Stem-Loop Driven Prion Protein mRNA Translation in H4-C Neuroglioblastoma Cells. [Related pubchem assays: 1829 (Project Summary), 1814 (Primary HTS)]; assay type: functional
# [15] = inhibitors of Vif binding to APOBEC3G peptide, primary screen, biochemical, TR-FRET, GST-Vif 1-94, biotin-A3G peptide, dose response retest (AID 1117319); assay type: functional;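 also: TR-FRET signal of purified GST-Vif binding a biotinylated A3G peptide; inhibitors lower the FRET signal by blocking Vif and A3G binding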
# NADPH oxidase 1 = target: T2, NADPH oxidase 1 (Homo sapiens, UniProt Q9Y5S8); assay type: functional, cell-based;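 also: Cell-based assay with luminescence read-out, IC50 derived from inhibitor dose-response curves; intracellular ROS from endogenous NOX1 in intact HT29 colon cancer cells; potency of inhibitors that lower the ROS luminescence signal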
# T2 sequence (Q9Y5S8 whole entry): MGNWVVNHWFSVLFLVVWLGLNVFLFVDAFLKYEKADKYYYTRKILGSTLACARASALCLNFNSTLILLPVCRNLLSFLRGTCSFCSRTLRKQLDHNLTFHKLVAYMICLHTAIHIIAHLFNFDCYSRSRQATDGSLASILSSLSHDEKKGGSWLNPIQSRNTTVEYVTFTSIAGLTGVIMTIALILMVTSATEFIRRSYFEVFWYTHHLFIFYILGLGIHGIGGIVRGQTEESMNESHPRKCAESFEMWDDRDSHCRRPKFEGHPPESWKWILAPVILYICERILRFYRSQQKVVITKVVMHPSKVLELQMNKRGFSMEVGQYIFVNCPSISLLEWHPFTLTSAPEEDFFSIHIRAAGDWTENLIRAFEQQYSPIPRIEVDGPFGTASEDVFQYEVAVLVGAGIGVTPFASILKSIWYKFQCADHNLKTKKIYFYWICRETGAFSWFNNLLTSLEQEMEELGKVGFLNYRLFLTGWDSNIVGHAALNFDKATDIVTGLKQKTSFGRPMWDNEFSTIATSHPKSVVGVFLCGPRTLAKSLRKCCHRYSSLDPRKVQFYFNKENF
# [16] = cytotoxicity toward NIH3T3 fibroblasts, dose response, counter-screen, cell-based, ATP luminescence, mouse fibroblasts (AID 2010); assay type: functional;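 also: cells exposed to compound for about 90 hours before reading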
# Cytochrome P450 3A4 = Cytochrome P450 3A4 (Homo sapiens, UniProt P08684);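 also: CYP3A4 tested as one member of a cytochrome P450 panel screen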
# Cytochrome P450 3A4, sequence (P08684 whole entry): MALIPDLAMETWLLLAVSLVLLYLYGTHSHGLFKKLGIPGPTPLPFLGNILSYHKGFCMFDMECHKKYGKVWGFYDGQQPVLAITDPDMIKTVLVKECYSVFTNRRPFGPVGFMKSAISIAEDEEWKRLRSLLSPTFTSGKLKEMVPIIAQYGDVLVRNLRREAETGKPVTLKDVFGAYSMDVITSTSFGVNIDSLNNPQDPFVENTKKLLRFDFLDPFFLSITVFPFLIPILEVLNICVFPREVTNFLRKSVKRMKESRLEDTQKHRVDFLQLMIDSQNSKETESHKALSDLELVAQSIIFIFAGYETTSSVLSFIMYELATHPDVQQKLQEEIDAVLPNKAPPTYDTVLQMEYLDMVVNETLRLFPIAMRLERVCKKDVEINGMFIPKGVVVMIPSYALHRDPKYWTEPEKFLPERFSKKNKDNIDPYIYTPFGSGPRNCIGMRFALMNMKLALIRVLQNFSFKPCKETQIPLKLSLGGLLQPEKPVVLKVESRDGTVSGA
# [17] = HEp-2 cell cytotoxicity, dose response, cytotoxicity control for RSV inhibitor project, HTS (AID 2410); assay type: functional; settings: human respiratory syncytial virus
# [18] = cytotoxicity in HEK-293T cells, dose response, cytotoxicity control for BCR NF-kB inhibitor project, luminescence, B-cell screen hits (AID 489021); assay type: functional, cell-based;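 also: HEK-293T cells carrying an NF-kB luciferase reporter; cells exposed to compound for about 14 hours before viability readout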
# Cytochrome P450 2C9 = Cytochrome P450 2C9 (Homo sapiens, UniProt P11712)
# Cytochrome P450 2C9, sequence (P11712 whole entry): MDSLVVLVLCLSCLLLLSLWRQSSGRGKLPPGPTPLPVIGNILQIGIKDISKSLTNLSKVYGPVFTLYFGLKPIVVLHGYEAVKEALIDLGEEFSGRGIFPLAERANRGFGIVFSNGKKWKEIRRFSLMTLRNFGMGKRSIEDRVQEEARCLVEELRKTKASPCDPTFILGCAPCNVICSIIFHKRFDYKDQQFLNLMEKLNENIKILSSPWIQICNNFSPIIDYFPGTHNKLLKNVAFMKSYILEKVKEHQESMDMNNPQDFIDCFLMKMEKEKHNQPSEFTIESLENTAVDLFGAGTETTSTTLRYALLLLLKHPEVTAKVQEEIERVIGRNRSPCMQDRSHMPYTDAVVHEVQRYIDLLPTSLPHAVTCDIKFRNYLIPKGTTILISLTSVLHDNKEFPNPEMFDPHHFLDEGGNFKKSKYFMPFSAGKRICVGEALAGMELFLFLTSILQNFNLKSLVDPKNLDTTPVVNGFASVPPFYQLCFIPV
# [19] = inhibitors of intracellular T. cruzi replication, confirmation, NIH3T3 host cells, beta-gal luminescence (AID 2044); assay type: functional, cell-based;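 also: intracellular parasites grown in NIH/3T3 mouse fibroblasts as host cells; luminescent beta-galactosidase reporter signal from transgenic T. cruzi replicating inside host cells; inhibitors lower the luminescence signal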
# [20] = Luminescence-based dose response cell-based high throughput screening assay for cytotoxic compounds using the IEC-6 intestinal epithelial cell line. [Related pubchem assays: 1858 (Summary AID.), 1825 (Counterscreen.), 1907 (Confirmation screen.)]; assay type: functional
smiles,measurement,setting,value
COc1ccc(OC)c(NC(=O)CSc2ncnc3c2cnn3-c2ccccc2Cl)c1,AC50,INS1,2.15 µM (active)
same,IC50,[1],3.67 µM (active)
COCC(=O)Nc1ccc2c(c1)C(=O)N(C)C[C@H](OC)[C@H](C)CN(Cc1cc(F)ccc1F)[C@@H](C)CO2,AC50,[2],1.84 µM (active)
same,AC50,[3],13.1 µM (active)
same,AC50,[4],> 100 µM (inactive)
same,AC50,[5],2.25 µM (active)
same,AC50,[6],1.18 µM (active)
NCCN1CCN(CCN)CC1,IC50,[7],> 83.4 µM (inactive)
same,IC50,[8],> 109 µM (inactive)
COc1ccc(-c2nc3ccccn3c2Cl)cc1,IC50,[9],> 67.6 µM (inactive)
same,EC50,[10],> 67.6 µM (inactive)
O=C(Nc1cccc(Cn2cccn2)c1)c1cc2c(s1)CCCC2,EC50,[11],0.853 µM (active)
same,EC50,[12],0.651 µM (active)
same,EC50,[13],< 0.1 µM (active)
same,EC50,H4,10.9 µM (active)
same,EC50,[14],> 12 µM (not active)
O=C(Cn1nc(-c2ccc(Cl)cc2)ccc1=O)NCc1ccc2c(c1)OCO2,IC50,[15],> 100 µM (active)
COc1ccc2c(c1)Sc1ccc(Cl)cc1N2,IC50,NADPH oxidase 1,0.177 µM (active)
C(=N\Nc1nc(Nc2ccccc2)nc(N2CCOCC2)n1)/c1c[nH]c2ccccc12,EC50,[16],0.536 µM (active)
same,AC50,Cytochrome P450 3A4,15.8 µM (inconclusive)
same,EC50,cells,0.018 µM (active)
same,CC50,[17],28.8 µM (active)
same,IC50,[18],28.5 µM (inactive)
same,AC50,Cytochrome P450 2C9,17.8 µM (inconclusive)
same,EC50,[19],< 0.1 µM (active)
same,IC50,[20],0.244 µM (active)
CCc1ccc(CN2CCCC(CCC(=O)N3CCN(c4ccccn4)CC3)C2)o1 (centres undefined),EC50,[16],> 60 µM (not active)
same,EC50,cells,0.021 µM (active)
same,EC50,[19],< 0.1 µM (active)
